This is an account of results in doi:10.1101/324947v3 (biorxiv, 2020).

pIC50, pKd, pKi: −log10 of the molar value.

The target of test [1] is T1, recombinant IDO1 (holo-IDO1; apo-IDO1) (Homo sapiens, UniProt P14902). The test is described as follows: fluorescence polarization competition against GSK1051. The format is binding.
Test [2] concerns the target T1, recombinant IDO1 (holo-IDO1; apo-IDO1). Briefly: NFK formation from D-TRP, Morrison tight binding fit. Format: biochemical.
Test [3] has the same target. Briefly: intrinsic TRP fluorescence quenching, equilibrium titration. The format is binding.

T1 sequence (P14902 whole entry): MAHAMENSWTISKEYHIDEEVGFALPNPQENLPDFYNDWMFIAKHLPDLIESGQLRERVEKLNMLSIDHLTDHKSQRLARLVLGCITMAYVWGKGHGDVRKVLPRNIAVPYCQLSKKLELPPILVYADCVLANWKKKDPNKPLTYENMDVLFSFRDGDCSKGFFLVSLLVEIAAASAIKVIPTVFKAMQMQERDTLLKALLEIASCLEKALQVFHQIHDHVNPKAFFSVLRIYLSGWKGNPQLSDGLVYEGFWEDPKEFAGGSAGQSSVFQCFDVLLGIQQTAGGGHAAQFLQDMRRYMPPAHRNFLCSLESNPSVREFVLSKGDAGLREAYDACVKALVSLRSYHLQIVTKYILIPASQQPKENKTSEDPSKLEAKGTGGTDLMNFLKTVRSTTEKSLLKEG

Consider `C=CC1=C(C)C2=Cc3c(C=C)c(C)c4[n]3[Fe+][n]3c(c(C)c(CCC(=O)O)c3=CC3=NC(=C4)C(C)=C3CCC(=O)O)=CC1=N2` [heme], for which the negative-log IC50 (pIC50) in test [1] was 8.36. In the case of `CC(C)CN(CC(C)C)c1ccc([C@H](C)CC(=O)O)cc1Nc1nc(C(F)(F)F)ns1` [GSK5628], the pKi in test [2] was 8.00. In addition, in test [3], the negative logarithm of the Kd (pKd) is 8.68.

By pIC50 is commonly meant the IC50 on a negative log10 scale, so that one unit is a factor of ten. As a reminder, the pKi is the Ki on a negative log10 scale, so that one unit is a factor of ten. Broadly, the pKd is the negative decadic logarithm of the Kd, by convention in mol/L.
